Columns and labels:
Assay in all cases: relative viability (nuclei count vs DMSO), 5 days (fraction); higher = more cells survive
Pictilisib + Vorinostat = compound: CS(=O)(=O)N1CCN(Cc2cc3nc(-c4cccc5[nH]ncc45)nc(N4CCOCC4)c3s2)CC1 [Pictilisib] + O=C(CCCCCCC(=O)Nc1ccccc1)NO [Vorinostat] (partner 1 µM)
How it was run: (§1)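 Dosing by pin tool came one day after lung cancer cell lines were seeded in 1536-well plates, using either one drug or a fixed anchor-drug dose plus five library-drug doses (not always all listed) in √10 steps. After 5 days, nuclei were counted on 4× images. Relative viability is treated-well nuclei count divided by vehicle-well nuclei count, and values are medians of duplicate plates.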

MK-2206 + Dasatinib = compound: NC1(c2ccc(-c3nc4ccn5c(=O)[nH]nc5c4cc3-c3ccccc3)cc2)CCC1 [MK-2206] + Cc1nc(Nc2ncc(C(=O)Nc3c(C)cccc3Cl)s2)cc(N2CCN(CCO)CC2)n1 [Dasatinib] (partner 0.075 µM)
How it was run: as §1

MK-2206 + Crizotinib = compound: NC1(c2ccc(-c3nc4ccn5c(=O)[nH]nc5c4cc3-c3ccccc3)cc2)CCC1 [MK-2206] + C[C@@H](Oc1cc(-c2cnn(C3CCNCC3)c2)cnc1N)c1c(Cl)ccc(F)c1Cl [Crizotinib] (partner 1 µM)
How it was run: as §1

Pictilisib + Pemetrexed = compound: CS(=O)(=O)N1CCN(Cc2cc3nc(-c4cccc5[nH]ncc45)nc(N4CCOCC4)c3s2)CC1 [Pictilisib] + Nc1nc2[nH]cc(CCc3ccc(C(=O)N[C@@H](CCC(=O)O)C(=O)O)cc3)c2c(=O)[nH]1 [Pemetrexed] (partner 0.2 µM)
How it was run: as §1

MK-2206 + Luminespib = compound: NC1(c2ccc(-c3nc4ccn5c(=O)[nH]nc5c4cc3-c3ccccc3)cc2)CCC1 [MK-2206] + CCNC(=O)c1noc(-c2cc(C(C)C)c(O)cc2O)c1-c1ccc(CN2CCOCC2)cc1 [Luminespib] (partner 0.01 µM)
How it was run: as §1

Cell Line: UMC-11
- relative viability (Pictilisib + Vorinostat; first compound 0.02 µM): 0.366
- relative viability (Pictilisib + Vorinostat; first compound 0.06325 µM): 0.414
- relative viability (Pictilisib + Vorinostat; first compound 0.6325 µM): 0.464
- relative viability (Pictilisib + Vorinostat; first compound 2 µM): 0.354
- relative viability (MK-2206 + Dasatinib; first compound 0.01 µM): 0.465
- relative viability (MK-2206 + Dasatinib; first compound 0.03162 µM): 0.434
- relative viability (MK-2206 + Dasatinib; first compound 0.3162 µM): 0.503
- relative viability (MK-2206 + Dasatinib; first compound 1 µM): 0.475
- relative viability (MK-2206 + Crizotinib; first compound 0.01 µM): 0.61
- relative viability (MK-2206 + Crizotinib; first compound 0.03162 µM): 0.569
- relative viability (MK-2206 + Crizotinib; first compound 0.3162 µM): 0.603
- relative viability (MK-2206 + Crizotinib; first compound 1 µM): 0.707
- relative viability (Pictilisib + Pemetrexed; first compound 0.02 µM): 0.784
- relative viability (Pictilisib + Pemetrexed; first compound 0.06325 µM): 0.787
- relative viability (Pictilisib + Pemetrexed; first compound 0.6325 µM): 0.737
- relative viability (Pictilisib + Pemetrexed; first compound 2 µM): 0.535
- relative viability (MK-2206 + Luminespib; first compound 0.01 µM): 1
- relative viability (MK-2206 + Luminespib; first compound 0.03162 µM): 0.944
- relative viability (MK-2206 + Luminespib; first compound 0.3162 µM): 1.12
- relative viability (MK-2206 + Luminespib; first compound 1 µM): 1.1

Source: the supplement of paper PMC10307832
